According to US20040073958A1, “Transgenic animal having drug metabolism enzyme gene and utilization thereof” (priority 2001, published 2004):
Where “and” joins values, the source holds several entries; their conditions need not be identical. Equal entries are not always repeated.

Assays:
rats and Rhesus monkeys = details: cited from earlier work; for teratogenicity in rats as compared with Rhesus monkeys: administered to rats at corresponding generation stages
rat = details: early test using a rat; cited from earlier work
36p Tg mice = assay: Teratogenicity and fetal toxicity effects of thalidomide in 36p Tg mouse; details: for Details of Malformation: number of fetuses in brackets
Experimental: Frozen eggs of the transgenic mouse were prepared in accordance with “Example 4: Production of fertilized egg,” and fertilized eggs of the transgenic mouse were cryopreserved. The frozen fertilized eggs were melted, and 20 eggs were respectively transplanted into the oviducts of pseudopregnant female mice of the ICR lineage, and implanted. On the 9th day of gestation, thalidomide was administered into the maternal peritoneal cavity. The effect of thalidomide was tested at the dosage of: 100 mg/kg, and 200 mg/kg. A mixed solution of Tween 20 and physiological saline (1:3) was used as a vehicle. On the day before the delivery, which is the 19th day of gestation, the maternal body was subjected to laparotomy to observe the conditions inside the womb and the presence of teratogenicity and fetal toxicity in the generated and grown fetus. Also, tissues were collected from the fetuses generated and grown in the womb, or vestige of fetal matter in the womb, DNA was extracted therefrom, and the genotype was assayed by PCR The results are summarized in Table 4.

rabbit = details: administration of cyclooxygenase inhibitor; cited from earlier work
Salmonella TA100 = details: cited from earlier work

Compound: O=c1[nH]cc(F)c(=O)[nH]1 [5-fluorouracil]
- teratogenicity in rats as compared with Rhesus monkeys (rats and Rhesus monkeys): teratogenicity was observed at a lower dose

Compound: O=C1CCC(N2C(=O)c3ccccc3C2=O)C(=O)N1 (centres unmarked) [Thalidomide, thalidomide]
- malformation of the fetus (rat): did not develop any malformation
- sensitivity of monkeys relative to that of rats (rats and Rhesus monkeys; teratogenic sensitivity, monkeys versus rats): ≥ 10 times
- sensitivity of rats compared with that of Rhesus monkeys (rats and Rhesus monkeys; teratogenic sensitivity): significantly lower
- Implants Total (36p Tg mice; 100 mg/kg i.p. day 9 of gestation, laparotomy day 19, single dam): 15 and 14
- Implants Total (36p Tg mice; 100 mg/kg, Total of 2 dams): 29
- Implants/dam (36p Tg mice; 100 mg/kg, Total of 2 dams): 14.5
- Live fetuses/dam (36p Tg mice; 100 mg/kg, Total of 2 dams): 1.5
- Malformations total (%) (36p Tg mice; 100 mg/kg, Total of 2 dams): 33.3%
- Malformations/Tg (%) (36p Tg mice; 100 mg/kg, Total of 2 dams): 100.0%
- Malformations/nTg (%) (36p Tg mice; 100 mg/kg, Total of 2 dams): 0.0%
- Resorptions (%) (36p Tg mice; 100 mg/kg, Total of 2 dams): 89.7%
- Tg fetuses (%) (36p Tg mice; 100 mg/kg, Total of 2 dams): 33.3%
- Tg/Malformations (%) (36p Tg mice; 100 mg/kg, Total of 2 dams): 100.0%
- nTg fetuses (%) (36p Tg mice; 100 mg/kg, Total of 2 dams): 66.7%
- Details of Malformation (36p Tg mice; 100 mg/kg): 100 mg/kg: umbilical hernia (1)
- Malformations/Tg (%) (36p Tg mice; 100 mg/kg, single dam): 100.0%
- Malformations/nTg (%) (36p Tg mice; 100 mg/kg, single dam): 0.0%
- Resorptions (%) (36p Tg mice; 100 mg/kg, single dam): 93.3% and 85.7%
- Tg/Malformations (%) (36p Tg mice; 100 mg/kg, single dam): 100.0%
- Implants Total (36p Tg mice; 200 mg/kg i.p. day 9 of gestation, laparotomy day 19, single dam): 8 and 16
- Implants Total (36p Tg mice; 200 mg/kg, Total of 2 dams): 24
- Implants/dam (36p Tg mice; 200 mg/kg, Total of 2 dams): 12.0
- Live fetuses/dam (36p Tg mice; 200 mg/kg, Total of 2 dams): 3.0
- Malformations total (%) (36p Tg mice; 200 mg/kg, Total of 2 dams): 16.7%
- Malformations/Tg (%) (36p Tg mice; 200 mg/kg, Total of 2 dams): 33.3%
- Malformations/nTg (%) (36p Tg mice; 200 mg/kg, Total of 2 dams): 0.0%
- Resorptions (%) (36p Tg mice; 200 mg/kg, Total of 2 dams): 70.8%
- Tg fetuses (%) (36p Tg mice; 200 mg/kg, Total of 2 dams): 50.0%
- Tg/Malformations (%) (36p Tg mice; 200 mg/kg, Total of 2 dams): 100.0%
- nTg fetuses (%) (36p Tg mice; 200 mg/kg, Total of 2 dams): 50.0%
- Details of Malformation (36p Tg mice; 200 mg/kg): 200 mg/kg: umbilical hernia (1)
- Malformations total (%) (36p Tg mice; 200 mg/kg, single dam): 16.7%
- Malformations/Tg (%) (36p Tg mice; 200 mg/kg, single dam): 33.3%
- Malformations/nTg (%) (36p Tg mice; 200 mg/kg, single dam): 0.0%
- Resorptions (%) (36p Tg mice; 200 mg/kg, single dam): 100.0% and 56.3%
- Tg fetuses (%) (36p Tg mice; 200 mg/kg, single dam): 50.0%
- Tg/Malformations (%) (36p Tg mice; 200 mg/kg, single dam): 100.0%
- nTg fetuses (%) (36p Tg mice; 200 mg/kg, single dam): 50.0%

Compound: CC(=O)Oc1ccccc1C(=O)O [acetylsalicylic acid]
- teratogenicity in rats as compared with Rhesus monkeys (rats and Rhesus monkeys): teratogenicity was observed at a lower dose
- effect on teratogenicity of thalidomide (rabbit): suppresses the teratogenicity of thalidomide

Compound: NC(=O)NO [hydroxylurea]
- teratogenicity in rats as compared with Rhesus monkeys (rats and Rhesus monkeys): teratogenicity was observed at a lower dose

Compound: CN(Cc1cnc2nc(N)nc(N)c2n1)c1ccc(C(=O)N[C@@H](CCC(=O)O)C(=O)O)cc1 [methotrexate]
- teratogenicity in rats as compared with Rhesus monkeys (rats and Rhesus monkeys): teratogenicity was observed at a lower dose
- sensitivity of rats higher than that of monkeys (rats and Rhesus monkeys; teratogenic sensitivity, rats versus monkeys): 20 times

Compound: CC1=C(/C=C/C(C)=C/C=C/C(C)=C/C(=O)O)C(C)(C)CCC1 [retinoic acid]
- teratogenicity in rats as compared with Rhesus monkeys (rats and Rhesus monkeys): teratogenicity was observed at a lower dose

Compound: CC[C@]1(O)C[C@H]2CN(CCc3c([nH]c4ccccc34)[C@@](C(=O)OC)(c3cc4c(cc3OC)N(C=O)[C@H]3[C@@](O)(C(=O)OC)[C@H](OC(C)=O)[C@]5(CC)C=CCN6CC[C@]43[C@@H]65)C2)C1 [vincristine]
- teratogenicity in rats as compared with Rhesus monkeys (rats and Rhesus monkeys): teratogenicity was observed at a lower dose

Compound: Aflatoxin B1
- metabolic activation in mutagenicity test (Salmonella TA100): efficiently activated
